Tests used:
Assay type in all cases: in vivo
[1] = test system: Glycine max (GLXMA); assay: Post-emergence effects on crop plants; conditions: crop plant
Description: (§1) Seeds of mono- and dicotyledonous weed plants and crop plants were sown, in plastic or organic planting pots, in sandy loam, covered with soil and grown in a greenhouse under controlled growth conditions. 2 to 3 weeks after sowing, the test plants were sprayed in the single-leaf stage. The compounds according to the invention, formulated in form of wettable powders (WP) or as emulsifiable concentrates (EC), were sprayed onto the green plant parts as aqueous suspension or emulsion, with the addition of 0.5% of an additive, at an application rate of 600 1 of water/ha (converted). The test plants were placed in the greenhouse for ca. 3 weeks under optimum growth conditions, and then the effect of the preparations was assessed visually in comparison with untreated controls (herbicidal effect in percent (%): 100% effect=plants have died off, 0% effect=as control plants).
(§2) Tables D1 to D3 below show the effects of selected compounds of the general formula (I) according to table 1 on various crop plants and an application rate corresponding to 320 g/ha or below obtained by the experimental procedure mentioned above in biology section B.

[2] = test system: Zea Mays (ZEAMX); assay: Post-emergence effects on crop plants; conditions: crop plant
Description: as §1, §2

[3] = test system: Brassica napus (BRSNW); assay: Post-emergence effects on crop plants; conditions: application rate 320 g/ha, crop plant Brassica napus (BRSNW)
Description: as §1, §2

[4] = test system: Avena fatua (AVEFA); assay: Herbicidal pre-emergence action; conditions: graded after ca. 3 weeks
Outline: (§3)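 Visual % damage versus untreated controls (100% = plants dead, 0% = like controls), scored ca. 3 weeks after treatment. Compounds (WP or EC) were sprayed onto the soil covering seeds sown in sandy loam, in water at 600 l/ha plus 0.5% additive, at 1280 g/ha or lower.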

[5] = test system: Digitaria sanguinalis (DIGSA); assay: Herbicidal pre-emergence action; conditions: 320 g/ha, graded after ca. 3 weeks
Outline: as §3

[6] = test system: Alopecurus myosuroides (ALOMY); assay: Herbicidal pre-emergence action; conditions: graded after ca. 3 weeks
Outline: as §3

[7] = test system: Lolium multiflorum (LOLMU); assay: Herbicidal post-emergence action; conditions: assessed after ca. 3 weeks
Outline: (§4)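 Visual % herbicidal effect versus untreated controls, scored ~3 weeks after spraying; 100% = dead, 0% = like control. Single-leaf-stage greenhouse plants, sprayed with WP/EC in aqueous spray + 0.5% additive, 600 l/ha, at 1280 or 320 g/ha.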

[8] = test system: Avena fatua (AVEFA); assay: Herbicidal post-emergence action; conditions: assessed after ca. 3 weeks
Outline: as §4

[9] = test system: Echinochloa crus-galli (ECHCG); assay: Herbicidal post-emergence action; conditions: assessed after ca. 3 weeks
Outline: as §4

[10] = test system: Digitaria sanguinalis (DIGSA); assay: Herbicidal post-emergence action; conditions: 320 g/ha, assessed after ca. 3 weeks
Outline: as §4

[11] = test system: Alopecurus myosuroides (ALOMY); assay: Herbicidal post-emergence action; conditions: assessed after ca. 3 weeks
Outline: as §4

[12] = test system: Glycine max (GLXMA); assay: Pre-emergence effects on crop plants; conditions: crop plant
Description: (§5) Seeds of mono- and dicotyledonous weed plants and crop plants were sown, in plastic or organic planting pots, in sandy loam and covered with soil. The compounds according to the invention, formulated in the form of wettable powders (WP) or as emulsifiable concentrates (EC), were applied to the surface of the covering soil as aqueous suspension or emulsion, with the addition of 0.5% of an additive, at an application rate of 600 1 of water/ha (converted).
(§6) Following treatment, the pots were placed in a greenhouse and kept under optimum growth conditions for the test plants. The visual grading of the damage to the test plants was carried out after ca. 3 weeks in comparison to untreated controls (herbicidal effect in percent (%): 100% effect=plants have died off, 0% effect=as control plants).
(§7) Tables C1 to C3 below show the effects of selected compounds of the general formula (I) according to table 1 on various crop plants and an application rate corresponding to 320 g/ha or below obtained by the experimental procedure mentioned above in biology section A.

[13] = test system: Brassica napus (BRSNW); assay: Pre-emergence effects on crop plants; conditions: 320 g/ha, crop plant
Description: as §5, §6, §7

[14] = test system: Lolium multiflorum (LOLMU); assay: Herbicidal pre-emergence action; conditions: 1280 g/ha, graded after ca. 3 weeks
Outline: as §3

[15] = test system: Echinochloa crus-galli (ECHCG); assay: Herbicidal pre-emergence action; conditions: graded after ca. 3 weeks
Outline: as §3

[16] = test system: Cyperus esculentus (CYPES); assay: Herbicidal pre-emergence action; conditions: 1280 g/ha, graded after ca. 3 weeks
Outline: as §3

[17] = test system: Polygonum convolvulus (POLCO); assay: Herbicidal pre-emergence action; conditions: graded after ca. 3 weeks
Outline: as §3

[18] = test system: Cyperus esculentus (CYPES); assay: Herbicidal post-emergence action; conditions: 1280 g/ha, assessed after ca. 3 weeks
Outline: as §4

[19] = test system: Setaria viridis (SETVI); assay: Herbicidal post-emergence action; conditions: 1280 g/ha, assessed after ca. 3 weeks
Outline: as §4

[20] = test system: Viola tricolor (VIOTR); assay: Herbicidal pre-emergence action; conditions: 320 g/ha, graded after ca. 3 weeks
Outline: as §3

[21] = test system: Lolium rigidum (LOLRI); assay: Herbicidal pre-emergence action; conditions: 320 g/ha, graded after ca. 3 weeks
Outline: as §3

[22] = test system: Setaria viridis (SETVI); assay: Herbicidal pre-emergence action; conditions: graded after ca. 3 weeks
Outline: as §3

[23] = test system: Zea Mays (ZEAMX); assay: Pre-emergence effects on crop plants; conditions: crop plant
Description: as §5, §6, §7

[24] = test system: Veronica persica (VERPE); assay: Herbicidal pre-emergence action; conditions: 1280 g/ha, graded after ca. 3 weeks
Outline: as §3

[25] = test system: Polygonum convolvulus (POLCO); assay: Herbicidal post-emergence action; conditions: 1280 g/ha, assessed after ca. 3 weeks
Outline: as §4

Row | SMILES | post-emergence activity against ZEAMX (crop damage) ([2]; 320 g/ha) | post-emergence activity against BRSNW [3] | Pre-emergence activity against AVEFA ([4]; 320 g/ha) | Pre-emergence activity against DIGSA [5] | Post-emergence activity against DIGSA [10] | pre-emergence activity against GLXMA (crop damage) ([12]; 320 g/ha) | pre-emergence activity against BRSNW (crop damage) [13] | Pre-emergence activity against LOLMU [14] | Pre-emergence activity against AVEFA ([4]; 1280 g/ha) | Pre-emergence activity against ECHCG ([15]; 1280 g/ha) | Pre-emergence activity against ALOMY ([6]; 1280 g/ha) | Pre-emergence activity against CYPES [16] | Pre-emergence activity against POLCO ([17]; 1280 g/ha) | Post-emergence activity against LOLMU ([7]; 1280 g/ha) | Post-emergence activity against AVEFA ([8]; 1280 g/ha) | Post-emergence activity against ECHCG ([9]; 1280 g/ha) | Post-emergence activity against ALOMY ([11]; 1280 g/ha) | Post-emergence activity against CYPES [18] | Post-emergence activity against SETVI [19] | post-emergence activity against GLXMA (crop damage) ([1]; 320 g/ha) | other results
1 | Cn1ncnc1NC(=O)CC1CCC(=O)N1Cc1cccc(F)c1F (racemic) [Example I-002] | 0% | 0% | 100% | 80% | 80% | 0% | 0% | – | – | – | – | – | – | – | – | – | – | – | – | – | post-emergence activity against GLXMA (crop damage) ([1]; 80 g/ha): 0%; post-emergence activity against ZEAMX (crop damage) ([2]; 80 g/ha): 0%; Pre-emergence activity against ALOMY ([6]; 320 g/ha): 100%; Post-emergence activity against LOLMU ([7]; 320 g/ha): 80%; Post-emergence activity against AVEFA ([8]; 320 g/ha): 80%; Post-emergence activity against ECHCG ([9]; 320 g/ha): 90%; Post-emergence activity against ALOMY ([11]; 320 g/ha): 80%
2 | COCC(=O)CC(=O)CNC(=O)CC1CCC(=O)N1Cc1cccc(F)c1F (racemic) [Example I-006] | – | – | – | – | – | – | – | 90% | 100% | 90% | 90% | 90% | 90% | 80% | 100% | 100% | 90% | 80% | 80% | – | –
3 | CS(=O)(=O)CCOC(=O)CC1CCC(=O)N1Cc1cccc(F)c1F (racemic) [Example I-009] | – | 20% | – | 90% | 80% | – | 0% | 80% | 100% | 90% | 90% | 80% | – | 90% | 90% | 100% | 80% | – | 80% | 0% | Pre-emergence activity against VIOTR [20]: 100%; Pre-emergence activity against LOLRI [21]: 80%; Pre-emergence activity against SETVI ([22]; 1280 g/ha): 80%; Pre-emergence activity against POLCO ([17]; 320 g/ha): 80%; pre-emergence activity against GLXMA (crop damage) ([12]; 80 g/ha): 20%
4 | CS(=O)(=O)NC(=O)CC1CCC(=O)N1Cc1cccc(F)c1F (racemic) [Example I-012] | – | – | – | – | – | – | – | 90% | 90% | 80% | 90% | 80% | – | 90% | 90% | 90% | 80% | 80% | 90% | – | Pre-emergence activity against SETVI ([22]; 1280 g/ha): 90%
5 | O=C(O)C1CCCN1C(=O)CC1CCC(=O)N1Cc1cccc(F)c1F (racemic) [Example I-013] | 0% | 0% | – | 90% | 80% | – | 0% | 90% | 100% | 90% | 90% | – | 90% | – | 80% | 80% | 80% | – | – | 0% | Pre-emergence activity against VIOTR [20]: 90%; Pre-emergence activity against LOLRI [21]: 80%; Pre-emergence activity against SETVI ([22]; 1280 g/ha): 90%; pre-emergence activity against GLXMA (crop damage) ([12]; 80 g/ha): 0%; pre-emergence activity against ZEAMX (crop damage) ([23]; 320 g/ha): 0%
6 | CC(C)CNC(=O)CC1CCC(=O)N1Cc1cccc(F)c1F (racemic) [Example I-056] | – | – | – | – | – | – | – | – | – | – | 80% | – | – | – | – | – | – | 80% | – | – | Pre-emergence activity against VERPE [24]: 100%
7 | COC(=O)c1ccccc1NC(=O)CC1CCC(=O)N1Cc1cccc(F)c1F (racemic) [Example I-080] | 0% | 0% | 80% | 80% | – | 0% | 0% | – | – | – | – | – | – | – | – | – | – | – | – | 0% | Pre-emergence activity against SETVI ([22]; 320 g/ha): 90%; pre-emergence activity against ZEAMX (crop damage) ([23]; 320 g/ha): 0%
8 | O=C(O)CC1CCC(=O)N1Cc1cc(F)cc(F)c1F (racemic) [Example I-201] | – | – | 100% | 90% | 90% | 0% | – | – | – | – | – | – | – | – | – | – | – | – | – | 0% | post-emergence activity against ZEAMX (crop damage) ([2]; 80 g/ha): 0%; Pre-emergence activity against ECHCG ([15]; 320 g/ha): 100%; Pre-emergence activity against ALOMY ([6]; 320 g/ha): 100%; Pre-emergence activity against LOLRI [21]: 80%; Pre-emergence activity against SETVI ([22]; 320 g/ha): 100%; Post-emergence activity against AVEFA ([8]; 320 g/ha): 100%; Post-emergence activity against ECHCG ([9]; 320 g/ha): 90%; Post-emergence activity against ALOMY ([11]; 320 g/ha): 90%; pre-emergence activity against ZEAMX (crop damage) ([23]; 80 g/ha): 0%
9 | CC[C@H](C)[C@H](NC(=O)CC1CCC(=O)N1Cc1cccc(F)c1F)C(=O)O (single isomer, unassigned) [Example I-005] | – | – | – | – | – | – | – | 80% | 100% | 80% | 90% | – | 80% | 90% | 90% | 100% | 90% | 90% | 90% | – | Post-emergence activity against POLCO [25]: 80%
10 | Cn1ncnc1NC(=O)CC1CCC(=O)N1Cc1cccc(F)c1F (single isomer, unassigned) [Example I-075] | 0% | 0% | 90% | – | – | 0% | 0% | – | – | – | – | – | – | – | 100% | – | – | – | – | 0% | pre-emergence activity against ZEAMX (crop damage) ([23]; 320 g/ha): 0%

Source: patent US20240199542A1, “SUBSTITUTED PYRROLIDIN-2-ONES, SALTS THEREOF AND THEIR USE AS HERBICIDALLY ACTIVE SUBSTANCES” (Bayer Aktiengesellschaft, priority 2021, published 2024)
